Assay results reported in patent publication US7390896B2, “Cyclic malonamides as inhibitors of Aβ protein production” (Bristol-Myers Squibb Pharma Corporation, priority 2000, dated 2008).

SMILES	melting point [°C]
CN1C(=O)[C@@H](NC(=O)C2(NC(=O)Cc3cc(F)cc(F)c3)CCCCC2)N=C(c2ccccc2)c2ccccc21	126 to 129
CN1C(=O)[C@@H](NC(=O)C2(NC(=O)Cc3cc(F)cc(F)c3)CCCC2)N=C(c2ccccc2)c2ccccc21	112 to 117
CN1C(=O)[C@@H](NC(=O)C2(NC(=O)Cc3cc(F)cc(F)c3)CC2)N=C(c2ccccc2)c2ccccc21	212 to 214
CN1C(=O)[C@@H](NC(=O)C2(NC(=O)CCC3CCCC3)CCCCC2)N=C(c2ccccc2)c2ccccc21	88 to 103
CC(C)CCC(=O)NC1(C(=O)NC2N=C(C(C)(C)C)c3ccccc3N(C)C2=O)CCCC1 (stereo not shown) [Example 61, N-((N-[5-(tert-Butyl)-1-methyl-2-oxo(3H-benzo[f]1,4-diazepin-3-yl)]carbamoyl)cyclopentyl)-4-methylpentanamide]	175 to 178
CCCCN1C(=O)C(NC(=O)C2(NC(=O)CCC(C)C)CCCC2)N=C(C(C)(C)C)c2ccccc21 (stereo not shown) [Example 62, N-({N-[5-(tert-Butyl)-1-butyl-2-oxo(3H-benzo[f]1,4-diazepin-3-yl)]carbamoyl}cyclopentyl)-4-methylpentanamide]	175 to 177
CCCCC1=NC(NC(=O)C2(NC(=O)CCC(C)C)CCCC2)C(=O)N(Cc2ccccn2)c2ccccc21 (stereo not shown) [Example 63, N-({N-[5-Butyl-2-oxo-1-(2-pyridylmethyl)(3H-benzo[f]1,4-diazepin-3-yl)]carbamoyl}cyclopentyl)-4-methylpentanamide]	63 to 67
